From US20130345177A1, “Oleyl Phosphocholine for the Treatment of Mycosis” (DAFRA PHARMA RESEARCH & DEVELOPMENT BVBA, priority 2011, published 2013)
In brackets after ≈: the same amount, converted by molar mass.

Columns and labels:
Candida yeast = conditions: patients with culture-proven candidemia; cited from earlier work
[1] = test system: Scedosporium prolificans IHEM 22387 (clinical blood isolate); assay: CLSI broth dilution antifungal susceptibility (microplates); format: cell-based; conditions: 48 hours of incubation; for MIC: Lomentospora prolificans, read-out: MIC100 (48 h)
Description: (§1) The above strains were contacted with oleyl phosphocholine on microplates and the anti-fungal activity of oleyl phosphocholine was determined. In comparison, the same test was performed using amphotericin B (AMB), voriconazole (VRZ) and itraconazole (ITR). The test protocol used was in conformity with the standard CLSI method: Clinical and Laboratory Standards Institute/National Committee for Clinical Laboratory Standards (2002) Reference method for broth dilution antifungal susceptibility testing of yeasts. […] Clinical and Laboratory Standards Institute/National Committee for Clinical Laboratory Standards Institute, Wayne Pa. Clinical and Laboratory Standards Institute/National Committee for Clinical Laboratory Standards. (2002) Reference method for broth dilution antifungal susceptibility testing of filamentous fungi. Approved Standard document M38-A. Clinical and Laboratory Standards Institute/National Committee for Clinical Laboratory Standards Institute, Wayne […]

[2] = test system: Candida krusei IHEM 9560 (ATCC 6258); assay: as above; format: cell-based; conditions: for MIC100 (48 h): 48 hours of incubation, inhibits growth of 100%; for MIC50: Pichia kudriavzevii, ATCC6258, 48 hours of incubation, inhibits growth of 50%
Description: as §1

[3] = test system: Aspergillus terreus IHEM 13669 (clinical isolate); assay: as above; format: cell-based; conditions: 48 hours of incubation; for MIC: read-out: MIC100 (48 h)
Description: as §1

[4] = test system: Candida glabrata IHEM 19371 (clinical blood isolate); assay: as above; format: cell-based; conditions: 48 hours of incubation; for MIC100 (48 h): inhibits growth of 100%; for MIC50: Nakaseomyces glabratus, inhibits growth of 50%
Description: as §1

[5] = test system: Fusarium solani IHEM 18489 (clinical isolate); assay: as above; format: cell-based; conditions: 48 hours of incubation; for MIC: read-out: MIC100 (48 h)
Description: as §1

[6] = test system: Candida parapsilosis IHEM 3270 (ATCC 22019); assay: as above; format: cell-based; conditions: for MIC100 (48 h): 48 hours of incubation, inhibits growth of 100%; for MIC50: Lodderomyces parapsilosis, ATCC22019, 48 hours of incubation, inhibits growth of 50%
Description: as §1

[7] = test system: Candida albicans IHEM 3731 (ATCC 10231); assay: as above; format: cell-based; conditions: for MIC100 (48 h): 48 hours of incubation, inhibits growth of 100%; for MIC50: ATCC10231, 48 hours of incubation, inhibits growth of 50%
Description: as §1

[8] = test system: Aspergillus niger IHEM 5788 (ATCC 10864); assay: as above; format: cell-based; conditions: for MIC100 (48 h): 48 hours of incubation; for MIC: ATCC10864, 48 hours of incubation, read-out: MIC100 (48 h)
Description: as §1

[9] = test system: Aspergillus fumigatus IHEM 18963 (NCPF 7367); assay: as above; format: cell-based; conditions: for MIC100 (48 h): 48 hours of incubation; for MIC: NCPF7367, 48 hours of incubation, read-out: MIC100 (48 h)
Description: as §1

[10] = test system: Candida albicans IHEM 19114 (clinical blood isolate resistant for voriconazole and itraconazole); assay: as above; format: cell-based; conditions: Candida albicans IHEM 19114 (resistant), 48 hours of incubation; for MIC100 (48 h): inhibits growth of 100%; for MIC50: inhibits growth of 50%
Description: The following ten strains were tested for assaying the anti-fungal activity of oleyl phosphocholine.
The above strains were contacted with oleyl phosphocholine on microplates and the anti-fungal activity of oleyl phosphocholine was determined. In comparison, the same test was performed using amphotericin B (AMB), voriconazole (VRZ) and itraconazole (ITR).
The test protocol used was in conformity with the standard CLSI method:
Clinical and Laboratory Standards Institute/National Committee for Clinical Laboratory Standards (2002) Reference method for broth dilution antifungal susceptibility testing of yeasts. Approved Standard document M27-A2. Clinical and Laboratory Standards Institute/National Committee for Clinical Laboratory Standards Institute, Wayne Pa. Clinical and Laboratory Standards Institute/National Committee for Clinical Laboratory Standards. (2002) Reference method for broth dilution antifungal susceptibility testing of filamentous fungi. Approved Standard document M38-A. Clinical and Laboratory Standards Institute/National Committee for Clinical Laboratory Standards Institute, Wayne
The results, after visual and spectrophometric reading after 48 hours of incubation, are presented as MIC50 and MIC 100, i.e. the minimum inhibitory concentration required inhibiting the growth of 50% or 100% of the microorganisms, respectively.

[11] = people taking itraconazole; cited from earlier work
[12] = test system: Candida albicans B63195 (S); assay: In vitro efficacy against yeasts and fungi (microplates); format: cell-based
Description: (§2) The above strains were contacted oleyl phosphocholine on microplates and the anti-fungal activity of oleyl phosphocholine was determined. Anti-fungal activity was expressed as IC50, i.e. the concentration oleyl phosphocholine needed to kill 50% of the pathogens.

[13] = test system: Candida parapsilosis B66126; assay: as above; format: cell-based
Description: as §2

[14] = test system: Trichophyton rubrum B68183; assay: as above; format: cell-based
Description: as §2

[15] = test system: Trichophyton mentagrophytes B70554; assay: as above; format: cell-based
Description: as §2

[16] = test system: Fusarium oxysporum IHEM3014; assay: as above; format: cell-based
Description: as §2

Trichophyton rubrum = assay: as above; format: cell-based
Description: as §2

[17] = test system: Aspergillus fumigatus B42928; assay: as above; format: cell-based
Description: as §2

[18] = test system: Candida albicans B59630 (R); assay: as above; format: cell-based
Description: as §2

Candida albicans = assay: as above; format: cell-based; conditions: concentration needed to kill 50% of the pathogens
Description: as §2

Cryptococcus neoformans = assay: as above; format: cell-based
Description: as §2

[19] = test system: Aspergillus fumigatus B19119; assay: as above; format: cell-based
Description: as §2

Microsporum canis = assay: as above; format: cell-based
Description: as §2

[20] = test system: Sporothrix schenkii B62482; assay: as above; format: cell-based
Description: as §2

Sporothrix schenkii = assay: as above; format: cell-based
Description: as §2

[21] = test system: Cryptococcus neoformans B66663; assay: as above; format: cell-based
Description: as §2

[22] = test system: Fusarium solani IHEM22128; assay: as above; format: cell-based
Description: as §2

Aspergillus fumigatus = assay: as above; format: cell-based
Description: as §2

Compound	MIC100 (48 h) [1]	MIC100 (48 h) [2]	MIC100 (48 h) [3]	MIC100 (48 h) [4]	MIC100 (48 h) [5]	MIC100 (48 h) [6]	MIC100 (48 h) [7]	MIC100 (48 h) [8]	MIC100 (48 h) [9]	MIC100 (48 h) [10]	MIC [1]	MIC50 [2]	MIC [3]	MIC50 [4]	MIC [5]	MIC50 [6]	MIC50 [7]	MIC [8]	MIC [9]	MIC50 [10]	other results
C[C@@H]1[C@H](O)[C@@H](C)/C=C/C=C/C=C/C=C/C=C/C=C/C=C/[C@H](O[C@@H]2O[C@H](C)[C@@H](O)[C@H](N)[C@@H]2O)C[C@@H]2O[C@](O)(C[C@@H](O)C[C@@H](O)[C@H](O)CC[C@@H](O)C[C@@H](O)CC(=O)O[C@H]1C)C[C@H](O)[C@H]2C(=O)O [AMB, amphotericin B]	>8 µg/mL	1 µg/mL (≈ 1.08 µM)	>8 µg/mL	0.5 µg/mL (≈ 0.541 µM)	2 µg/mL (≈ 2.16 µM)	1 µg/mL (≈ 1.08 µM)	0.5 µg/mL (≈ 0.541 µM)	1 µg/mL (≈ 1.08 µM)	2 µg/mL (≈ 2.16 µM)	0.5 µg/mL (≈ 0.541 µM)	–	–	–	–	–	–	–	–	–	–	time to clear Candida yeast from the bloodstream (median) (Candida yeast): 2 days
CCC(C)n1ncn(-c2ccc(N3CCN(c4ccc(OCC5COC(Cn6cncn6)(c6ccc(Cl)cc6Cl)O5)cc4)CC3)cc2)c1=O (centres unmarked) [ITR, itraconazole]	–	–	–	–	–	–	–	–	–	–	> 16 µg/mL	0.25 µg/mL (≈ 0.354 µM)	0.25 µg/mL (≈ 0.354 µM)	0.5 µg/mL (≈ 0.709 µM)	> 16 µg/mL	0.064 µg/mL (≈ 0.0907 µM)	0.032 µg/mL (≈ 0.0453 µM)	0.5 µg/mL (≈ 0.709 µM)	0.5 µg/mL (≈ 0.709 µM)	> 16 µg/mL	people with elevated alanine aminotransferase levels [11]: 4%
CCCCCCCC/C=C\CCCCCCCCOP(=O)([O-])OCC[N+](C)(C)C [OlPC, oleyl phosphocholine]	5 µg/mL (≈ 11.5 µM)	5 µg/mL (≈ 11.5 µM)	10 µg/mL (≈ 23.1 µM)	5 µg/mL (≈ 11.5 µM)	5 µg/mL (≈ 11.5 µM)	5 µg/mL (≈ 11.5 µM)	2.5 µg/mL (≈ 5.77 µM)	10 µg/mL (≈ 23.1 µM)	5 µg/mL (≈ 11.5 µM)	2.5 µg/mL (≈ 5.77 µM)	–	–	–	–	–	–	–	–	–	–	IC50 [12]: 7.77 µM; IC50 [13]: 8 µM; IC50 [14]: 2 µM; IC50 [15]: 2 µM; IC50 [16]: 2.55 µM; IC50 (Trichophyton rubrum): 5.87 µM; IC50 [17]: 8 µM; IC50 [18]: 8 µM; IC50 (Candida albicans): 7.89 µM; IC50 (Cryptococcus neoformans): 4.5 µM; IC50 [19]: 1.87 µM; IC50 (Microsporum canis): 1.66 µM; IC50 [20]: 1.97 µM; IC50 (Sporothrix schenkii): 8.16 µM; IC50 [21]: 0.5 µM; IC50 [22]: 2.31 µM; IC50 (Aspergillus fumigatus): 18.8 µM
C[C@@H](c1ncncc1F)[C@](O)(Cn1cncn1)c1ccc(F)cc1F [VRZ, voriconazole]	–	–	–	–	–	–	–	–	–	–	16 µg/mL (≈ 45.8 µM)	0.5 µg/mL (≈ 1.43 µM)	0.5 µg/mL (≈ 1.43 µM)	0.25 µg/mL (≈ 0.716 µM)	16 µg/mL (≈ 45.8 µM)	0.125 µg/mL (≈ 0.358 µM)	0.064 µg/mL (≈ 0.183 µM)	1 µg/mL (≈ 2.86 µM)	1 µg/mL (≈ 2.86 µM)	> 16 µg/mL	–
